The source made the active and inactive calls. The rule behind the calls is not given here.
Columns and labels:
[1] = target: T1, Dual specificity protein kinase CLK4 (Homo sapiens, UniProt Q9HAZ1); experiment: Inhibition of CLK4 (unknown origin) by ADP-Glo assay
Target sequence in this assay (Q9HAZ1 whole entry): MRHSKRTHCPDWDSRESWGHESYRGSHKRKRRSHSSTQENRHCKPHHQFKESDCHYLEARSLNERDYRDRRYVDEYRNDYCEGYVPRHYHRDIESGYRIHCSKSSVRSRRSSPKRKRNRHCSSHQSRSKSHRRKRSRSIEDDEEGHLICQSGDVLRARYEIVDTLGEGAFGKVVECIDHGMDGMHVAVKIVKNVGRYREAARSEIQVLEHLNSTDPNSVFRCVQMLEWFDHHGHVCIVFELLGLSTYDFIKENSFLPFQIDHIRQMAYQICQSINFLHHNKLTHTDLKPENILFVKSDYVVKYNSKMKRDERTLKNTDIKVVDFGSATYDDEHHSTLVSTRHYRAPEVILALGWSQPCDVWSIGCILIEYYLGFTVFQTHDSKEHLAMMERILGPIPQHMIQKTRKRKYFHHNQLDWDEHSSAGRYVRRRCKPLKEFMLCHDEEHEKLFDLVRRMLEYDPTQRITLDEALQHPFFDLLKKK

[2] = target: T1, Dual specificity protein kinase CLK4; experiment: Inhibition of CLK4 (unknown origin) at 100 nM by ADP-Glo assay relative to control
Target sequence in this assay (Q9HAZ1 whole entry, looked up): as the sequence (Q9HAZ1 whole entry) above

[3] = tested on: NCI-H1299; experiment: Induction of apoptosis in human NCI-H1299 cells assessed as late apoptotic cells at 2.5 uM incubated for 24 hrs by annexin V-FITC/PI staining based flow cytometric analysis (reference value: 2.23 %); format: functional
[4] = tested on: NCI-H1299; experiment: Induction of apoptosis in human NCI-H1299 cells assessed as early apoptotic cells at 1 uM incubated for 24 hrs by annexin V-FITC/PI staining based flow cytometric analysis (reference value: 0.49 %); format: functional
[5] = tested on: HCC827; experiment: cells; details: Homo sapiens, HCC827, 48 h
Description: Antiproliferative activity against human HCC827 cells assessed as inhibition of cell growth incubated for 48 hrs by MTT assay

[6] = target: Dual specificity protein kinase CLK3 (Homo sapiens, UniProt P49761); experiment: Inhibition of CLK3 (unknown origin) at 100 nM by ADP-Glo assay relative to control
[7] = tested on: NCI-H1299; experiment: Induction of apoptosis in human NCI-H1299 cells assessed as early apoptotic cells at 0.25 uM incubated for 24 hrs by annexin V-FITC/PI staining based flow cytometric analysis (reference value: 0.49 %); format: functional
[8] = tested on: NCI-H1299; experiment: Induction of apoptosis in human NCI-H1299 cells assessed as early apoptotic cells at 2.5 uM incubated for 24 hrs by annexin V-FITC/PI staining based flow cytometric analysis (reference value: 0.49 %); format: functional
[9] = target: T2, Dual specificity protein kinase CLK1 (Homo sapiens, UniProt P49759); experiment: Inhibition of CLK1 (unknown origin) by ADP-Glo assay
Target sequence in this assay (P49759 whole entry): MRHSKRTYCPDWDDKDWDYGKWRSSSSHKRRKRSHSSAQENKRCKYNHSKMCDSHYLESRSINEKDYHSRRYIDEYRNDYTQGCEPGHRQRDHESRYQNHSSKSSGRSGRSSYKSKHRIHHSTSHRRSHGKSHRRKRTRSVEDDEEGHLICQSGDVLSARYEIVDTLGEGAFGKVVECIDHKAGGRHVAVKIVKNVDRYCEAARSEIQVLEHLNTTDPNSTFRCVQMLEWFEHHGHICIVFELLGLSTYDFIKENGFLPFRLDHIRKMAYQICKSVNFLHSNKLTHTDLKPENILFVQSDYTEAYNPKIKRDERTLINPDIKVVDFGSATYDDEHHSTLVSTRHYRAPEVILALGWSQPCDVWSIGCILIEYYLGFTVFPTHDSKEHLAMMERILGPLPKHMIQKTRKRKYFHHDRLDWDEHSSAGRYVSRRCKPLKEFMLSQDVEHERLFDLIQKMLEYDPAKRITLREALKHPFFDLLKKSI

[10] = tested on: A549; experiment: cells; details: Homo sapiens, A549, 48 h
Description: Antiproliferative activity against human A549 cells assessed as inhibition of cell growth incubated for 48 hrs by MTT assay

[11] = tested on: NCI-H1299; experiment: Induction of apoptosis in human NCI-H1299 cells assessed as viable cells at 0.1 uM incubated for 24 hrs by annexin V-FITC/PI staining based flow cytometric analysis (reference value: 95 %); format: functional; details: read-out: Activity
[12] = target: T2, Dual specificity protein kinase CLK1; experiment: Inhibition of CLK1 (unknown origin) at 100 nM by ADP-Glo assay relative to control
Target sequence in this assay (P49759 whole entry, looked up): as the sequence (P49759 whole entry) above

[13] = tested on: NCI-H1299; experiment: Induction of apoptosis in human NCI-H1299 cells assessed as early apoptotic cells at 0.1 uM incubated for 24 hrs by annexin V-FITC/PI staining based flow cytometric analysis (reference value: 0.49 %); format: functional
[14] = tested on: NCI-H1299; experiment: Induction of apoptosis in human NCI-H1299 cells assessed as necrotic cells at 0.1 uM incubated for 24 hrs by annexin V-FITC/PI staining based flow cytometric analysis (reference value: 2.28 %); format: functional
[15] = tested on: NCI-H1299; experiment: Inhibition of Wnt pathway in human NCI-H1299 cells assessed as downregulation of beta-catenin phosphorylation at 0.1 to 1 uM incubated for 12 hrs by Western blotting analysis; format: cell-based; details: dose 0.1-1 µM
[16] = cells; details: Homo sapiens, Osimertinib-resistant HCC827AR cell, 48 h
Description: Antiproliferative activity against human Osimertinib-resistant HCC827AR cell assessed as inhibition of cell growth incubated for 48 hrs by MTT assay

[17] = tested on: NCI-H1299; experiment: Induction of apoptosis in human NCI-H1299 cells assessed as necrotic cells at 0.5 uM incubated for 24 hrs by annexin V-FITC/PI staining based flow cytometric analysis (reference value: 2.28 %); format: functional
[18] = target: T2, Dual specificity protein kinase CLK1; experiment: Inhibition of CLK in human NCI-H1299 cells assessed as downregulation of SRSF6 phosphorylation at 0.1 to 1 uM incubated for 1 hr by Western blotting analysis; format: cell-based; details: dose 0.1-1 µM
Target sequence in this assay (P49759 whole entry, looked up): as the sequence (P49759 whole entry) above

Dual specificity protein kinase CLK3, sequence (P49761 whole entry, looked up): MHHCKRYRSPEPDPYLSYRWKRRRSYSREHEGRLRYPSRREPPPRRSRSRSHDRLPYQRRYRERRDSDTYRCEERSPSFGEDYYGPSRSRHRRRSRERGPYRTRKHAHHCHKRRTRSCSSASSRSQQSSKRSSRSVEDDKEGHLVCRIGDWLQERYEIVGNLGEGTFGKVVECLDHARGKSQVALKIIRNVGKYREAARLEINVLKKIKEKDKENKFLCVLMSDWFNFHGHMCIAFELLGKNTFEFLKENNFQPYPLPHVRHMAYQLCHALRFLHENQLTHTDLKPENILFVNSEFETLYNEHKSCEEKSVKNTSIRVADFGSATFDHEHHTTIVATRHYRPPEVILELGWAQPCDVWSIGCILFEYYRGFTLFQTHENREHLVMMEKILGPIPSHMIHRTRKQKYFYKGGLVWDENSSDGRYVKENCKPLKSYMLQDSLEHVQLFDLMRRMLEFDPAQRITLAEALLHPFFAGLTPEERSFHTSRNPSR

- IC50 [1]: 7.3 nM
- inhibition [2]: 95%
- IC50 [5]: 160 nM
- inhibition [6]: 103%
- IC50 [9]: 4.6 nM
- IC50 [10]: 170 nM
- inhibition [12]: 98.1%
- IC50 [16]: 220 nM
Compound: FC1(F)CCN(Cc2cncc(-c3ccc4[nH]nc(-c5nc(-c6ccco6)c(-c6ccco6)[nH]5)c4c3)c2)C1
- Activity [3]: 6.71%
- Activity [4]: 9.75%
- Activity [7]: 3.57%
- Activity [8]: 9.7%
- viability at 0.1 µM [11]: 96.2%
- Activity [13]: 1.45%
- Activity [14]: 1.1%
- inhibition [15]: Active
- Activity [17]: 0.89%
- inhibition [18]: Active; Showed Stronger Inhibition Compared To Indazole 1
